The text below walks through data of patent US9487508B2, “SGC stimulators” (IRONWOOD PHARMACEUTICALS, INC., priority 2012, dated 2016).

Experiment [1] has as its target T1, soluble guanylate cyclase (sGC) (Homo sapiens, UniProt Q02108+Q02153).
T1 construct: endogenously expressing soluble guanylate cyclase (sGC); endogenous in cells; host or cells: HEK293
T1 sequence (Q02153 1-619): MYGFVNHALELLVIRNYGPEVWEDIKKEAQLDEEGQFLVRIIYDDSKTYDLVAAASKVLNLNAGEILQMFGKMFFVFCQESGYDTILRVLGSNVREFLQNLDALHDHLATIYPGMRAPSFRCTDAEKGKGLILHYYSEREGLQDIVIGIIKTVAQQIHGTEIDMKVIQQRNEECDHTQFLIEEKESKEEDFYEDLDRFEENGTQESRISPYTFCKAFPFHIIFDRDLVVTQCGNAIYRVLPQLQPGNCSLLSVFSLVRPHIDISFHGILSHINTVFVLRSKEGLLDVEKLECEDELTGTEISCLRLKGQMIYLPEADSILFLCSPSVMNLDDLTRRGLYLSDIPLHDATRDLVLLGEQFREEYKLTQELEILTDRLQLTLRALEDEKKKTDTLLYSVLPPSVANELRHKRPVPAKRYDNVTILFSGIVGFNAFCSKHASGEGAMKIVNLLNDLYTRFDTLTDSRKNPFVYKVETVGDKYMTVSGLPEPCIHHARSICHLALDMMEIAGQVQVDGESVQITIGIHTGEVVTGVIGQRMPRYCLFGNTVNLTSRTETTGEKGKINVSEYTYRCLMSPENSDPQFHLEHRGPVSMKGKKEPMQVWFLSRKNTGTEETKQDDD
T1 sequence (Q02108 1-690): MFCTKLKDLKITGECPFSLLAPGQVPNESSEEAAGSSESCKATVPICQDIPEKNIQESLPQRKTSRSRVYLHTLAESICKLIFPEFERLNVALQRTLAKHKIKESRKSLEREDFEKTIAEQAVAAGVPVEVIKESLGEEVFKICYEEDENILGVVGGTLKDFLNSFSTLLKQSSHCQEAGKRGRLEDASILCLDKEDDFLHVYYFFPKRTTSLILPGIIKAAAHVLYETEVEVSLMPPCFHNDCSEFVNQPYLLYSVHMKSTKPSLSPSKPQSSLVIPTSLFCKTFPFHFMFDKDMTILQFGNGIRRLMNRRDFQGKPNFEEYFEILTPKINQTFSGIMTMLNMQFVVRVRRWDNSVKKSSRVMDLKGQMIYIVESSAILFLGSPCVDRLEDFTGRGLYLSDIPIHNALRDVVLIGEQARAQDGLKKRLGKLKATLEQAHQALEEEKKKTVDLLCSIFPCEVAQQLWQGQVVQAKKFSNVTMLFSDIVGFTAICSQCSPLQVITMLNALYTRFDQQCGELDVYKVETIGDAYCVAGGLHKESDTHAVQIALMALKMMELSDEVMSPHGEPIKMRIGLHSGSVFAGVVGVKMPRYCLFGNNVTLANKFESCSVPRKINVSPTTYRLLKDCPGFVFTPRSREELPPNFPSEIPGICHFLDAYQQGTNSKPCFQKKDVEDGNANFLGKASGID
The experiment in a line: sGC-HEK-cGMP assay with SNP incubation (LC/MS read-out). The class given is cell-based. The conditions noted are these: 10 μM SNP; for Emax at 1 µM: 1 μM compound, read-out: HEK assay (Percent Emax at 1 μM); for Emax at 1 µM / Emax at 10 µM / Emax at 30 µM: 100% = BAY 41-2272 at 10 μM with 100 μM SNP; for Emax at 10 µM: 10 μM compound, read-out: HEK assay (Percent Emax at 10 μM); for Emax at 30 µM: 30 μM compound, read-out: HEK assay (Percent Emax at 30 μM); for Emax: maximum of full concentration-response curve, top not fitted to 100%, relative to BAY 41-2272 control, read-out: HEK assay Emax-unconstrained (Percent); for EC50: top of curve not fitted to 100%, read-out: HEK assay EC50-unconstrained. On the procedure:
(Assay Run with SNP Incubation)
(§1) Human embryonic kidney cells (HEK293), endogenously expressing soluble guanylate cyclase (sGC), were used to evaluate the activity of test compounds. Compounds stimulating the sGC receptor should cause an increase in the intracellular concentration of cGMP. HEK 293 cells were seeded in Dulbecco's Modification of Eagle's Medium supplemented with fetal bovine serum (10% final) and L-glutamine (2 mM final) in a 200 μL volume at a density of 1×10^5 cells/well in a poly-D-lysine coated 96 well flat bottom plate and grown overnight at 37° C. Medium was aspirated and cells were washed with 1× Hank's Buffered Saline Salt Solution (200 μL). Cells were then incubated for 15 minutes at 37° C. with 200 μL of a 0.5 mM 3-isobutyl-1-methylxanthine (IBMX) solution. Test article and sodium nitroprusside solutions (x μM concentration for test article solution and 10 μM concentration for SNP solution; wherein x is one of the following concentrations);
were then added to the assay mixture (2 μL each) and the resulting mixture incubated at 37° C. for 10 minutes. After the 10 minute incubation, the assay mixture was aspirated and 0.1M HCl (200 μL) was added to the cells. The plate was incubated at 4° C. for 30 minutes in the 0.1M HCl to stop the reaction and lyse the cells. The plates were then centrifuged at 1,200 g for 5 minutes at room temperature. Supernatants were collected and transferred to a new flat bottom 96 well plate for analysis by HPLC-MS. Vehicle controls were carried out using DMSO (1%) solutions. A known sGC stimulator, BAY 41-2272, was used as the positive control. Samples were diluted with an equal volume of 1 M Ammonium Acetate (pH 7) to neutralize samples for better chromatography. A 2×cGMP standard solution was prepared in 0.1 M HCl and then diluted with an equal volume of 1 M Ammonium Acetate, with the following final concentrations in nM: 1024, 512, 256, 128, 64, 32, 16, 8, 4, 2, 1. cGMP concentrations in the test plates were determined from each sample using the LC/MS conditions shown in Table 2 below and the calculated cGMP standard curve. EC50 values were calculated from concentration-response curves generated with GraphPad Prism Software.
The biological activities of some of the compounds of Formula I or Formula Ib determined with the sGC-HEK assay with SNP incubation are summarized in Tables 3A and 3B.

For experiment [2], the system named is lambs with acute pulmonary hypertension. The following applies: cited from earlier work; for pulmonary vasodilation / effect on mean arterial pressure / transpulmonary cGMP release / systemic arterial oxygenation: inhaled microparticles, awake lambs; for pulmonary vasodilation: U-46619 infused to mean pulmonary arterial pressure 35 mm Hg; for effect on mean arterial pressure / transpulmonary cGMP release / systemic arterial oxygenation: U-46619 infusion.

Experiment [3] addresses T1, soluble guanylate cyclase (sGC). Briefly: HEK whole cell assay using HTRF procedure (with SNP incubation). The class given is cell-based. The conditions noted are these: HTRF cGMP read-out, 10 μM SNP; for Emax: relative to BAY 41-2272 at 10 μM with 100 μM SNP, read-out: HEK assay Emax-unconstrained (Percent); for EC50: top of curve not fitted to 100%, read-out: HEK assay EC50-unconstrained. On the procedure: Example 2B, HEK whole cell assay using HTRF procedure (Assay Run with SNP Incubation)
as §1, with “enzyme” for “receptor”
were then added to the assay mixture (2 μL each) and the resulting mixture incubated at 37° C. for 10 minutes. After the 10 minute incubation, the assay mixture was aspirated and 0.1M HCl (200 μL) was added to the cells. The plate was incubated at 4° C. for 30 minutes in the 0.1M HCl to stop the reaction and lyse the cells. The plates were then centrifuged at 1,200 g for 5 minutes at room temperature.
cGMP levels were determined using a cGMP HTRF assay (Cisbio Product #62GM2PEC). For each sample, 5 uL of HEK assay supernatant was diluted 1:5 in HTRF kit assay diluent and transferred to a well of the assay plate, and the HTRF assay was performed according to the HTRF kit manufacturer's instructions. Sample calculations were performed using high and low controls, where high control was supernatant from HEK assay performed in the presence of 10 uM Bay 41-2272+100 uM SNP, and the low control was the supernatant from the HEK assay performed in the presence of vehicle. A cGMP standard solution was prepared in 0.1 M HCl and diluted in order to perform a cGMP standard curve using the HTRF assay. Using Mean Ratio data from the HTRF assay, sample date were normalized according to the equation: 100*(Sample−Low Control)/(High Control−Low Control). Data were fit to a 3-parameter log agonist dose response (Top (% EMax), Bottom, log EC50) using Graphpad (Prism Software). Data in Table 3C was obtained using this modified assay procedure.
On the technique in general: TR-FRET usually uses a lanthanide donor and a delayed reading to cut background.

Usually Emax stands for the greatest response seen or fitted, relative to the assay's reference. In general, EC50 refers to the concentration giving half of the maximal effect. With `COc1nc(-n2cc(-c3ccon3)c(Cc3ccccc3F)n2)ncc1F` [Compound I-10], in experiment [1], the maximal effect (Emax) at 1 µM lay in the range of 20 to 40%, the Emax at 10 µM lay within 20 to 40%, the Emax at 30 µM was 20 to 40% and the maximum response (Emax) lay in the range of 20 to 40%. Also, the concentration giving a half-maximal response (EC50) in experiment [1] lay within 500 to 1000 nM.

Regarding `Nc1nc(-c2nn(Cc3ccccc3F)c3ncccc23)ncc1C1CC1` [BAY 41-2272], in experiment [2], the pulmonary vasodilation result is “dose dependent pulmonary vasodilation”, the “effect on mean arterial pressure” value was “without significant effect” and the “transpulmonary cGMP release” value was “increased transpulmonary cGMP release”.

For `Fc1ccccc1Cc1nn(-c2ncc(F)c(N3CCOCC3)n2)cc1-c1ccon1` [Compound I-6], in experiment [3], the Emax lay in the range of 80 to 100% and the half-maximal effective concentration (EC50) fell in the range of 100 to 500 nM.

On to `OCC(CO)Nc1nc(-n2cc(-c3ccon3)c(Cc3ccccc3F)n2)ncc1F` [Compound I-5], for which, in experiment [3], the Emax lay in the range of 80 to 100% and the 50% effective concentration (EC50) lay in the range of 100 to 500 nM.

Regarding `O=c1onc2cnc3ccccc3n12` [ODQ, 1H-[1,2,4]oxadiazolo[4,3-a]quinoxalin-1-one], the “pulmonary vasodilator effect of iNO” value in experiment [2] (intravenous administration, lambs) is “markedly reduced”.

As for `O=C(O)CCCCN(CCc1ccccc1OCc1ccc(CCc2ccccc2)cc1)Cc1ccc(C(=O)O)cc1` [BAY 58-2667], the “pulmonary vasodilation and transpulmonary cGMP release after treatment with ODQ” value in experiment [2] (inhaled microparticles after intravenous ODQ, lambs) is reported as “greatly enhanced”. Besides, in experiment [2], the pulmonary vasodilation result is “dose dependent pulmonary vasodilation”, the “effect on mean arterial pressure” value is “without significant effect”, the systemic arterial oxygenation result was “increased systemic arterial oxygenation” and the “transpulmonary cGMP release” value is “increased transpulmonary cGMP release”.

Take `O=c1[nH]c(-n2cc(-c3ccon3)c(Cc3ccccc3F)n2)ncc1F` [Compound I-1]: in experiment [1], the Emax at 1 µM was in the range of 60 to 80%, the Emax at 10 µM fell in the range of 80 to 100%, the maximum response (Emax) at 30 µM lay within 80 to 100% and the Emax lay in the range of 80 to 100%. The EC50 in experiment [1] was in the range of 10 to 100 nM.

On to `OCC(O)Cn1ccc2cnc(-n3cc(-c4ccon4)c(Cc4ccccc4F)n3)nc21` (stereo not shown) [Compound I-7], for which, in experiment [3], the Emax fell in the range of 80 to 100% and the EC50 lay within 100 to 500 nM.

On to `Nc1ccnc(-n2cc(-c3ccon3)c(Cc3ccccc3F)n2)n1` [Compound I-9], for which, in experiment [1], the Emax at 1 µM is 60 to 80%, the Emax at 10 µM lay in the range of 80 to 100%, the Emax at 30 µM was 80 to 100% and the Emax was 80 to 100%. In experiment [1], the EC50 was in the range of 100 to 500 nM.

Turning to `CC(C)[C@@H](C(=O)O)N(C)c1nc(-n2cc(-c3ccon3)c(Cc3ccccc3F)n2)ncc1F` [Compound I-4], in experiment [1], the Emax at 1 µM is 80 to 100%, the maximal response (Emax) at 10 µM is 100 to 120%, the Emax at 30 µM fell in the range of 100 to 120% and the Emax was 100 to 120%. In addition, the EC50 in experiment [1] lay within 10 to 100 nM.

For `Nc1nc(-c2nn(Cc3ccccc3F)c3ncccc23)nc(N)c1N1CCOCC1` [BAY 41-8543], the “magnitude and duration of pulmonary vasodilation induced by iNO” value in experiment [2] (after inhaling microparticles, lambs) is listed as “augmented”. Moreover, in experiment [2], the pulmonary vasodilation result was “dose dependent pulmonary vasodilation”, the “effect on mean arterial pressure” value was “without significant effect”, the systemic arterial oxygenation entry is given as “increased systemic arterial oxygenation” and the “transpulmonary cGMP release” value is “increased transpulmonary cGMP release”.
